Read-outs that look alike come from different tables or passages of the source.
Legend:
IL-1β = experiment: LPS-stimulated whole bovine blood assay, MSD cytokine detection; format: cell-based; conditions: overstimulation of IL-1β, LPS-stimulated bovine whole blood
IL-6 = experiment: as above; format: cell-based; conditions: Bos taurus, read-out: IL-6 (IC50 μM)
Text: In order to correlate RNA sequencing data to cytokine changes the whole blood assay was utilized. […] The enhancement result represents an overall stimulation of cytokine levels due to cellular stress or potential toxicity with increasing concentrations of the compound, representing a typical bell shape response curve for immunomodulatory activity.

TNF-α = experiment: as above; format: cell-based; conditions: Bos taurus, read-out: TNF-α (IC50 μM)
[1] = tested on: BRD pathogens, M. haemolytica and P. multocida; experiment: MIC screening panel of BRD pathogens (antibacterial / non-antibacterial)
[2] = LPS-stimulated bovine whole blood
[3] = read-out: antibacterial / non-antibacterial (MIC for the BRD pathogens)
[4] = read-out: MIC ≤64 μg/mL for at least one of the bacterial strains (flag * at Ex #)

SMILES	IC50 (IL-6; [2])	IC50 (TNF-α; [2])	IL-1β OS of LPS (IL-1β)	MIC [1, 3]	MIC [1, 4]	IC50 (IL-6)	IC50 (TNF-α)
CC[C@H]1OC(=O)[C@H](C)[C@@H](O[C@H]2C[C@@](C)(OC)[C@](O)(CN3CCCC3)[C@H](C)O2)[C@H](C)[C@@H](O[C@@H]2O[C@H](C)C[C@H](N(C)C(=O)N(C)c3ccccc3)[C@H]2O)[C@](C)(O)C[C@@H](C)CN[C@H](C)[C@@H](O)[C@]1(C)O [Example J-12, 1-((2S,3R,4S,6R)-2-(((2R,3S,4R,5R,8R,10R,11R,12S,13S,14R)-2-ethyl-3,4,10-trihydroxy-13-(((2R,4R,5S,6S)-5-hydroxy-4-methoxy-4,6-dimethyl-5-(pyrrolidin-1-ylmethyl)tetrahydro-2H-pyran-2-yl)oxy)-3,5,8,10,12,14-hexamethyl-15-oxo-1-oxa-6-azacyclopentadecan-11-yl)oxy)-3-hydroxy-6-methyltetrahydro-2H-pyran-4-yl)-1,3-dimethyl-3-phenylurea]	126 µM	34 µM	22 µM	> 64 µg/mL			
CC[C@H]1OC(=O)[C@H](C)[C@@H](O[C@H]2C[C@@](C)(OC)[C@](O)(CN3CC(F)(F)C3)[C@H](C)O2)[C@H](C)[C@@H](O[C@@H]2O[C@H](C)C[C@H](N(C)C(=O)N(C)c3ccccc3)[C@H]2O)[C@](C)(O)C[C@@H](C)CN[C@H](C)[C@@H](O)[C@]1(C)O [Example J-15, 1-((2S,3R,4S,6R)-2-(((2R,3S,4R,5R,8R,10R,11R,12S,13S,14R)-13-(((2R,4R,5S,6S)-5-((3,3-difluoroazetidin-1-yl)methyl)-5-hydroxy-4-methoxy-4,6-dimethyltetrahydro-2H-pyran-2-yl)oxy)-2-ethyl-3,4,10-trihydroxy-3,5,8,10,12,14-hexamethyl-15-oxo-1-oxa-6-azacyclopentadecan-11-yl)oxy)-3-hydroxy-6-methyltetrahydro-2H-pyran-4-yl)-1,3-dimethyl-3-phenylurea]	28 µM	14 µM	16 µM	> 64 µg/mL			
CC[C@H]1OC(=O)[C@H](C)[C@@H](O[C@H]2C[C@@](C)(OC)[C@](O)(CN3CCC(F)(F)CC3)[C@H](C)O2)[C@H](C)[C@@H](O[C@@H]2O[C@H](C)C[C@H](N(C)C(=O)N(C)c3ccccc3)[C@H]2O)[C@](C)(O)C[C@@H](C)CN[C@H](C)[C@@H](O)[C@]1(C)O [Example J-17, 1-((2S,3R,4S,6R)-2-(((2R,3S,4R,5R,8R,10R,11R,12S,13S,14R)-13-(((2R,4R,5S,6S)-5-((4,4-difluoropiperidin-1-yl)methyl)-5-hydroxy-4-methoxy-4,6-dimethyltetrahydro-2H-pyran-2-yl)oxy)-2-ethyl-3,4,10-trihydroxy-3,5,8,10,12,14-hexamethyl-15-oxo-1-oxa-6-azacyclopentadecan-11-yl)oxy)-3-hydroxy-6-methyltetrahydro-2H-pyran-4-yl)-1,3-dimethyl-3-phenylurea]	25 µM	14 µM	40 µM		< 64 µg/mL		
CC[C@H]1OC(=O)[C@H](C)[C@@H](O[C@H]2C[C@@](C)(OC)[C@](O)(CN3CCCCC3)[C@H](C)O2)[C@H](C)[C@@H](O[C@@H]2O[C@H](C)C[C@H](N(C)C(=O)N(C)c3ccccc3)[C@H]2O)[C@](C)(O)C[C@@H](C)CN[C@H](C)[C@@H](O)[C@]1(C)O [Example J-18, 1-((2S,3R,4S,6R)-2-(((2R,3S,4R,5R,8R,10R,11R,12S,13S,14R)-2-ethyl-3,4,10-trihydroxy-13-(((2R,4R,5S,6S)-5-hydroxy-4-methoxy-4,6-dimethyl-5-(piperidin-1-ylmethyl)tetrahydro-2H-pyran-2-yl)oxy)-3,5,8,10,12,14-hexamethyl-15-oxo-1-oxa-6-azacyclopentadecan-11-yl)oxy)-3-hydroxy-6-methyltetrahydro-2H-pyran-4-yl)-1,3-dimethyl-3-phenylurea]			>250 µM		< 64 µg/mL	17 µM	16 µM
CC[C@H]1OC(=O)[C@H](C)[C@@H](O[C@H]2C[C@@](C)(OC)[C@](O)(CN3CCC(c4ccccc4)CC3)[C@H](C)O2)[C@H](C)[C@@H](O[C@@H]2O[C@H](C)C[C@H](N(C)C(=O)N(C)c3ccccc3)[C@H]2O)[C@](C)(O)C[C@@H](C)CN[C@H](C)[C@@H](O)[C@]1(C)O [Example J-20, 1-((2S,3R,4S,6R)-2-(((2R,3S,4R,5R,8R,10R,11R,12S,13S,14R)-2-ethyl-3,4,10-trihydroxy-13-(((2R,4R,5S,6S)-5-hydroxy-4-methoxy-4,6-dimethyl-5-((4-phenylpiperidin-1-yl)methyl)tetrahydro-2H-pyran-2-yl)oxy)-3,5,8,10,12,14-hexamethyl-15-oxo-1-oxa-6-azacyclopentadecan-11-yl)oxy)-3-hydroxy-6-methyltetrahydro-2H-pyran-4-yl)-1,3-dimethyl-3-phenylurea]	9 µM	7 µM	3 µM	> 64 µg/mL			

Further lines, with some results ahead:

IC50 (IL-6; [2])	IC50 (TNF-α; [2])	SMILES	IL-1β OS of LPS (IL-1β)	MIC [1, 3]	MIC [1, 4]	IC50 (IL-6)	IC50 (TNF-α)
45 µM	20 µM	CC[C@H]1OC(=O)[C@H](C)[C@@H](O[C@H]2C[C@@](C)(OC)[C@](O)(CN3CCOCC3)[C@H](C)O2)[C@H](C)[C@@H](O[C@@H]2O[C@H](C)C[C@H](N(C)C(=O)N(C)c3ccccc3)[C@H]2O)[C@](C)(O)C[C@@H](C)CN[C@H](C)[C@@H](O)[C@]1(C)O [Example J-10, 1-((2S,3R,4S,6R)-2-(((2R,3S,4R,5R,8R,10R,11R,12S,13S,14R)-2-ethyl-3,4,10-trihydroxy-13-(((2R,4R,5S,6S)-5-hydroxy-4-methoxy-4,6-dimethyl-5-(morpholinomethyl)tetrahydro-2H-pyran-2-yl)oxy)-3,5,8,10,12,14-hexamethyl-15-oxo-1-oxa-6-azacyclopentadecan-11-yl)oxy)-3-hydroxy-6-methyltetrahydro-2H-pyran-4-yl)-1,3-dimethyl-3-phenylurea]	40 µM	> 64 µg/mL			
75 µM	65 µM	CC[C@H]1OC(=O)[C@H](C)[C@@H](O[C@H]2C[C@@](C)(OC)[C@](O)(CN3CCC(S(C)(=O)=O)CC3)[C@H](C)O2)[C@H](C)[C@@H](O[C@@H]2O[C@H](C)C[C@H](N(C)C(=O)N(C)c3ccccc3)[C@H]2O)[C@](C)(O)C[C@@H](C)CN[C@H](C)[C@@H](O)[C@]1(C)O [Example J-21, 1-((2S,3R,4S,6R)-2-(((2R,3S,4R,5R,8R,10R,11R,12S,13S,14R)-2-ethyl-3,4,10-trihydroxy-13-(((2R,4R,5S,6S)-5-hydroxy-4-methoxy-4,6-dimethyl-5-((4-(methylsulfonyl)piperidin-1-yl)methyl)tetrahydro-2H-pyran-2-yl)oxy)-3,5,8,10,12,14-hexamethyl-15-oxo-1-oxa-6-azacyclopentadecan-11-yl)oxy)-3-hydroxy-6-methyltetrahydro-2H-pyran-4-yl)-1,3-dimethyl-3-phenylurea]	20 µM	> 64 µg/mL			
99 µM	31 µM	CC[C@H]1OC(=O)[C@H](C)[C@@H](O[C@H]2C[C@@](C)(OC)[C@](O)(Cn3ccnc3)[C@H](C)O2)[C@H](C)[C@@H](O[C@@H]2O[C@H](C)C[C@H](N(C)C(=O)N(C)c3ccccc3)[C@H]2O)[C@](C)(O)C[C@@H](C)CN[C@H](C)[C@@H](O)[C@]1(C)O [Example J-24, 1-((2S,3R,4S,6R)-2-(((2R,3S,4R,5R,8R,10R,11R,12S,13S,14R)-13-(((2R,4R,5S,6S)-5-((1H-imidazol-1-yl)methyl)-5-hydroxy-4-methoxy-4,6-dimethyltetrahydro-2H-pyran-2-yl)oxy)-2-ethyl-3,4,10-trihydroxy-3,5,8,10,12,14-hexamethyl-15-oxo-1-oxa-6-azacyclopentadecan-11-yl)oxy)-3-hydroxy-6-methyltetrahydro-2H-pyran-4-yl)-1,3-dimethyl-3-phenylurea]	100 µM	> 64 µg/mL			

From patent US12295936B2, “Immunomodulating urea azalides” (Zoetis Services LLC, priority 2020, dated 2025)
